Target: T1, purified ITK (Invitrogen PV3875) (Homo sapiens, UniProt Q08881)
T1 construct: purchased Invitrogen PV3875
T1 sequence (Q08881 1-620): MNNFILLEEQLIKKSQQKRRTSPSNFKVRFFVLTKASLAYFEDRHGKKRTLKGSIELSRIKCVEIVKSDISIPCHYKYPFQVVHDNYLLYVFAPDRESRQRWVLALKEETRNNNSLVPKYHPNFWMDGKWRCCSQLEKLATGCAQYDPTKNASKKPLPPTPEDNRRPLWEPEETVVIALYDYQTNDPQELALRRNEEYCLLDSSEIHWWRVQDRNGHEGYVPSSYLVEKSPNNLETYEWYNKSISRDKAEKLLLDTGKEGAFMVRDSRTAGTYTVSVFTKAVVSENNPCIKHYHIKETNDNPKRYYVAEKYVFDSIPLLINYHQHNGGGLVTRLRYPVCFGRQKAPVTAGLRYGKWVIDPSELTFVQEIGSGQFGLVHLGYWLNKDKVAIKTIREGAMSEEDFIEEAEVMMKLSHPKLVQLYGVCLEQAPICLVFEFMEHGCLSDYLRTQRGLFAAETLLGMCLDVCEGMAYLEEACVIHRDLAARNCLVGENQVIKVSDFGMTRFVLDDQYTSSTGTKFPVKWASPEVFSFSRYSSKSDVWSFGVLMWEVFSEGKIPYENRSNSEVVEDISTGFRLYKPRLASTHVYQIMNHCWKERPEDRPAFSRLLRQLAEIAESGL
Test: ITK peptide phosphorylation assay (Caliper LabChip or LCMS)
Type: biochemical
Outline: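 Purified human ITK peptide phosphorylation, quenched with EDTA (50 mM final) for Caliper LabChip separation or TCA (5% v/v final) for UPLC-MS/MS MRM quantification. Ki derived via Morrison tight-binding equation, corrected for competitive inhibition using ATP concentration relative to Km,app.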

[1] = Table 2, Examples 1-140, class symbols
[2] = Table 3, specific values for certain examples

Row | Ki [1] [nM] | Ki (Table 1, Examples 141-279) [nM] | Ki [2] [nM] | Compound
1 | 1 to 100 | – | – | O=C(Nc1cnn(Cc2cc(F)ccc2F)c1)c1n[nH]c2ccccc12 [Example 69, N-(1-(2,5-difluorobenzyl)-1H-pyrazol-4-yl)-1H-indazole-3-carboxamide]
2 | – | 35.5 | – | O=C(Nc1cnn(C(CO)c2ccccc2)c1)c1n[nH]c2ccccc12 (stereo not shown) [Example 257, N-[1-(2-hydroxy-1-phenyl-ethyl)pyrazol-4-yl]-1H-indazole-3-carboxamide]
3 | 1 to 100 | – | 38.7 | O=C(Nc1cnn(Cc2cccc(CNCCO)c2)c1)c1n[nH]c2ccccc12 [Example 96, N-(1-(3-((2-hydroxyethylamino)methyl)benzyl)-1H-pyrazol-4-yl)-1H-indazole-3-carboxamide]
4 | – | 22 | – | CC(CO)c1ccc2[nH]nc(C(=O)Nc3cnn(Cc4cccc(C#N)c4)c3)c2c1 (stereo not shown) [Example 186, N-[1-[(3-cyanophenyl)meth-yl]pyrazol-4-yl]-5-(2-hydroxy-1-methyl-ethyl)-1H-indazole-3-carboxamide]
5 | 1 to 100 | – | – | CC(C)(O)CNCc1cccc(Cn2cc(NC(=O)c3n[nH]c4ccccc34)cn2)c1 [Example 90, N-(1-(3-((2-hydroxy-2-methylpropylamino)methyl)benzyl)-1H-pyrazol-4-yl)-1H-indazole-3-carboxamide]
6 | – | 654 | – | CN1CC=C(c2ccc3c(C(=O)Nc4cnn(Cc5cccc(C#N)c5)c4)n[nH]c3c2)CC1 [Example 165, N-[1-[(3-cyanophenyl)meth-yl]pyrazol-4-yl]-6-(1-methyl-3,6-dihydro-2H-pyridin-4-yl)-1H-indazole-3-carboxamide]
7 | – | 2.71 | – | N#Cc1cccc(Cn2cc(NC(=O)c3n[nH]c4ccc(NC5CCNCC5)cc34)cn2)c1 [Example 180, N-[1-[(3-cyanophenyl)methyl]pyrazol-4-yl]-5-(4-piperidylamino)-1H-indazole-3-carboxamide]
8 | – | 24.8 | – | CNc1cncc(-c2ccc3c(C(=O)Nc4cnn(Cc5ccccc5)c4)n[nH]c3c2)n1 [Example 189, N-(1-benzylpyrazol-4-yl)-6-[6-(methylamino)py-razin-2-yl]-1H-indazole-3-carboxamide]
9 | – | 1.12 | – | O=C(Nc1cnn(Cc2cncnc2)c1)c1n[nH]c2cc(-c3cn[nH]c3)ccc12 [Example 226, 6-(1H-pyrazol-4-yl)-N-[1-(pyrimidin-5-ylmethyl)pyrazol-4-yl]-1H-indazole-3-carboxamide]
10 | – | 1400 | – | CN1CCC(Nc2ccc3c(C(=O)Nc4cnn(Cc5cccc(C#N)c5)c4)n[nH]c3c2)C1 (stereo not shown) [Example 172, N-[1-[(3-cyanophenyl)meth-yl]pyrazol-4-yl]-6-[(1-methylpyrrolidin-3-yl)amino]-1H-indazole-3-carboxamide]
11 | 1 to 100 | – | – | O=C(Nc1cnn(Cc2csc(-c3ccccc3)n2)c1)c1n[nH]c2cc(-c3cn[nH]c3)ccc12 [Example 20, 6-(1H-Pyrazol-4-yl)-1H-indazole-3-carboxylic acid [1-(2-phenyl-thiazol-4-ylmethyl)-1H-pyrazol-4-yl]-amide]
12 | – | 16.9 | – | N#Cc1cccc(Cn2cc(NC(=O)c3n[nH]c4cc(-c5cncnc5)ccc34)cn2)c1 [Example 164, N-[1-[(3-cyanophenyl)meth-yl]pyrazol-4-yl]-6-pyrimidin-5-yl-1H-indazole-3-carboxamide]
13 | – | 8.74 | – | CC(C)(O)Cn1cc(NC(=O)c2n[nH]c3cc(-c4cn[nH]c4)ccc23)cn1 [Example 170, N-[1-(2-hydroxy-2-methyl-propyl)pyrazol-4-yl]-6-(1H-pyrazol-4-yl)-1H indazole-3-carboxamide]
14 | – | 53.8 | – | CCC(c1ccccc1)n1cc(NC(=O)c2n[nH]c3cc(-c4cncc(OC)c4)ccc23)cn1 (stereo not shown) [Example 211, 6-(5-methoxy-3-pyridyl)-N-[1-(1-phenylpropyl)py-razol-4-yl]-1H-indazole-3-carboxamide]
15 | 1 to 100 | – | – | CNC(=O)c1ccc(Cn2cc(NC(=O)c3n[nH]c4cc(-c5cn[nH]c5)ccc34)cn2)o1 [Example 15, 6-(1H-Pyrazol-4-yl)-1H-indazole-3-carboxylic acid [1-(5-methylcarbamoyl-furan-2-ylmethyl)-1H-pyrazol-4-yl]-amid]
16 | 1 to 100 | – | 7.42 | O=C(Nc1cnn(Cc2cccc3cccnc23)c1)c1n[nH]c2cc(-c3cn[nH]c3)ccc12 [Example 9, 6-(1H-Pyrazol-4-yl)-1H-indazole-3-carboxylic acid (1-quinolin-8-ylmethyl-1H-pyrazol-4-yl)-amide]
17 | – | 154 | – | N#Cc1cccc(Cn2cc(NC(=O)c3n[nH]c4cc(C5CCNCC5)ccc34)cn2)c1 [Example 179, N-[1-[(3-cyanophenyl)meth-yl]pyrazol-4-yl]-6-(4-piperidyl)-1H-indazole-3-carboxamide]
18 | 1 to 100 | – | – | O=C(Nc1cnn(Cc2ccc(CNC3CCC3)cc2)c1)c1n[nH]c2ccccc12 [Example 107, N-(1-(4-((cyclobutylamino)methyl)benzyl)-1H-pyrazol-4-yl)-1H-indazole-3-carboxamide]
19 | – | 2.47 | – | O=C(Nc1cnn(CC2CCOCC2)c1)c1n[nH]c2cc(-c3cn[nH]c3)ccc12 [Example 242]
20 | – | 18.5 | – | CNc1ncc(-c2ccc3c(C(=O)Nc4cnn(Cc5ccccc5)c4)n[nH]c3c2)s1 [Example 190, N-(1-benzylpyrazol-4-yl)-6-[2-(methylamino)thi-azol-5-yl]-1H-indazole-3-carboxamide]
21 | – | 57.2 | – | Cc1cc2c(C(=O)Nc3cnn(Cc4cccc(C#N)c4)c3)n[nH]c2cc1-c1cncc(C#N)c1 [Example 148, N-[1-[(3-cyanophenyl)meth-yl]pyrazol-4-yl]-6-(5-cyano-3-pyridyl)-5-methyl-1H-indazole-3-carboxamide]
22 | 1 to 100 | – | – | CC(c1ccccc1)n1cc(NC(=O)c2n[nH]c3ccccc23)cn1 (stereo not shown) [Example 131, N-(1-(1-phenylethyl)-1H-pyrazol-4-yl)-1H-indazole-3-carboxamide]
23 | – | 152 | – | CN(C)CC(c1ccccc1)n1cc(NC(=O)c2n[nH]c3ccccc23)cn1 (stereo not shown) [Example 276, N-[1-[2-(dimethylamino)-1-phenyl-ethyl]pyrazol-4-yl]-1H-indazole-3-carboxamide]
24 | – | 4.85 | – | O=C(Nc1cnn(Cc2cccnn2)c1)c1n[nH]c2cc(-c3cn[nH]c3)ccc12 [Example 225, 6-(1H-pyrazol-4-yl)-N-[1-(pyridazin-3-ylmethyl)pyrazol-4-yl]-1H-indazole-3-carboxamide]
25 | – | 7.65 | – | O=C(Nc1cnn(CCC2CCCCC2)c1)c1n[nH]c2cc(-c3cn[nH]c3)ccc12 [Example 169, N-[1-(2-cyclohexylethyl)py-razol-4-yl]-6-(1H-pyrazol-4-yl)-1H-indazole-3-carboxamide]
26 | 1 to 100 | – | – | O=C(Nc1cnn(Cc2ccc(CN3CCC3)cc2)c1)c1n[nH]c2ccccc12 [Example 103, N-(1-(4-(azetidin-1-ylmethyl)benzyl)-1H-pyrazol-4-yl)-1H-indazole-3-carboxamide]
27 | 1 to 100 | – | – | O=C(Nc1cnn(Cc2ccc(F)cc2F)c1)c1n[nH]c2ccccc12 [Example 71, N-(1-(2,4-difluorobenzyl)-1H-pyrazol-4-yl)-1H-indazole-3-carboxamide]
28 | – | 5.33 | – | O=C(Nc1cnn(CC2CC2)c1)c1n[nH]c2cc(-c3cn[nH]c3)ccc12 [Example 240, N-[1-(cyclopropylmeth-yl)pyrazol-4-yl]-6-(1H-pyrazol-4-yl)-1H-indazole-3-carboxamide]
29 | – | 458 | – | COC1CCN(c2ccc3c(C(=O)Nc4cnn(Cc5cccc(C#N)c5)c4)n[nH]c3c2)C1 (stereo not shown) [Example 208, N-[1-[(3-cyanophenyl)meth-yl]pyrazol-4-yl]-6-(3-methoxypyrrolidin-1-yl)-1H-indazole-3-carboxamide]
